Experimental data as given in article PMC11306511, “Combining VPS34 inhibitors with STING agonists enhances type I interferon signaling and anti‐tumor efficacy” (Molecular Oncology, 2024).

How the values were obtained:
B16-F10 tumors = experiment: Tumor growth inhibition study, B16-F10 tumor-bearing mice; assay type: in vivo, mouse; conditions: B16-F10 in C57BL/6 mice; SB02024 20 mg·kg^−1 oral daily day 7-16; ADU-S100 10 μg intratumoral days 9, 11, 13, 15
Excerpt: Study protocols were approved by the Institutional Animal Care and Use Committee of CrownBio in China (AN‐1903‐05‐313) or the LIH's animal welfare committee in Luxembourg (agreement LECR‐2018‐12). Mice were handled according to European Union guidelines, adhering to the principles of replacement, reduction, and refinement (3Rs). Animals were housed in appropriate accommodations conducive to their well‐being, with provisions for housing, feeding, and environmental enrichment to meet their physical and behavioral needs. Highly skilled personnel were involved in carrying out procedures related to the animal experiments to ensure proper care and handling. Female 6 to 8‐week‐old BALB/c (supplied by Shanghai Lingchang Biotechnology Co., Shanghai, China; n = 14) or C57BL/6 mice (supplied by Janvier Labs, Le Genest‐Saint‐Isle, France; n = 40) were injected into the right flank with 1 × 10^6 Renca or 0.2 × 10^6 B16‐F10 cells, respectively, resuspended in 100 μL PBS (day 0). When tumors were palpable (day 9 for Renca, day 7 for B16‐F10 tumors), mice were randomly assigned into two groups for the Renca model with n = 6 (vehicle) and n = 8 (SB02024) or four groups for the B16‐F10 model with n = 10. […] Tumor growth was measured using a caliper every other day and estimated as follows: volume (cm^3) = (width)^2 × length × 0.5.

[1] = design: method as in PMID 34070756; conditions: cited from earlier work
A-498 cells = experiment: IFN/cytokine gene expression (qRT-PCR) and secretion (MSD) in A-498 cells; assay type: cell-based, human; conditions: 2 μM, 24 h, vs DMSO
Description: (§1) RNA was isolated using the PureLink kit (#12183018A; Thermo Fisher) and DNA‐binding columns (Rneasy plus kit, #74134; Qiagen) and/or Dnase treatment (#12185010; Thermo Fisher). After quantification using NanoDrop, 50 ng·μL^−1 RNA was used for cDNA synthesis with SuperScript IV VILO Master Mix (#11756050; Thermo Fisher). Quantitative RT‐PCR was run with diluted cDNA (1 : 25 or 1 : 12.5), PowerUp SYBR Green Master Mix (#A25741; Thermo Fisher), and 200 nM primers (see Table S3) on a CFX Connect RT‐PCR system (BioRad, Hercules, CA, USA). Data were analyzed using the ΔΔCT method.
(§2) Cell culture medium was centrifuged at 300 g for 10 min at 4 °C and supernatant stored at −80 °C. Mouse blood was collected at termination in K2‐EDTA tubes on ice, centrifuged at 1270 g for 10 min at 4 °C, and plasma was stored at −80 °C. Cytokine levels were quantified using Mesoscale Discovery (MSD) assays: human CCL5 (#F21ZN), CXCL10 (#K151UFK), IFNβ (#K151VIK); mouse CCL5 (#K152A2K) and CXCL10 (#K152UFK). Low concentrations of human IFNβ were determined using High‐Sensitivity IFNβ ELISA (#41415‐1; PBL Assay Science, Piscataway, NJ, USA). CCL5/CXCL10 levels in some experiments were quantified using R&D Systems (Minneapolis, MN, USA) ELISAs: human CCL5 (#DY278) or CXCL10 (#DY266); mouse CCL5 (#DY478).

B16-F10 cells = experiment: IFN/cytokine gene expression (qRT-PCR) and secretion (MSD) in B16-F10 cells; assay type: cell-based, murine; conditions: 2 μM, 24 h, vs DMSO
Description: as §1, §2

Me30966 cells = experiment: Gene expression (qRT-PCR) in Me30966 cells; assay type: cell-based, human; conditions: 2 μM, 24 h, vs DMSO
Description: (A) IFNB1 gene expression quantified by qRT-PCR after 24h treatment with DMSO control or 2 µM of VPS34 inhibitor
(=VPS34i, SB02024 or SAR405) in Me30966 cells.

Compound	% TGI (percent tumor growth inhibition compared to vehicle control) (B16-F10 tumors) [%]	anti-tumor efficacy in clinical trials [1]	transcription of IFNB1 and ISGs IRF1, IRF7, IRF9 (A-498 cells)	transcription of IFNB1 and ISGs IRF1, IRF7, IRF9 (B16-F10 cells)	IFNB1 expression (Me30966 cells)
Nc1ncnc2c1ncn2[C@@H]1O[C@@H]2COP(=O)([S-])O[C@@H]3[C@H](O)[C@@H](COP([O-])(=S)O[C@H]2[C@H]1O)O[C@H]3n1cnc2c(N)ncnc21.[Na+].[Na+] (some centres unmarked) [ADU-S100, reference compound]	36	only limited	–	–	–
C[C@@H]1COCCN1c1cc(=O)n2c(n1)N(Cc1cncc(Cl)c1)[C@H](C(F)(F)F)CC2 [SAR405, reference compound]	–	–	significantly increased	significantly increased	significantly increased
